Values of other authors in patent US20060024344A1 (priority 2004, published 2006).
Entries after “also recorded” stand apart in the source; their conditions may differ.

Tests used:
Conditions in all cases: in vivo
sharks [1] = tested on: sharks
sharks [2] = tested on: sharks; remark: listed apart in the source
fish in schoold = tested on: fish in schoold
captive lemon sharks = tested on: captive lemon sharks
sharks [3] = tested on: sharks; remark: listed apart in the source
[4] = tested on: rainbow trout, blugill and channel catfish
human skin = tested on: human skin
human tongue = tested on: human tongue

| Molecule | efficiency to repel sharks (sharks [1]) | observed effect on fish (fish in schoold) | further results |
| --- | --- | --- | --- |
| CCCCCCCCOS(=O)(=O)[O-].[Na+] [sodium octyl sulfate] | revealed efficiency to repel sharks |  |  |
| CC(=O)OC[C@H](C)CCC[C@@H](C)[C@H]1CCC2C3C(C[C@H](O)[C@@]21C)[C@@]1(C)CC[C@@H](O)C[C@H]1C[C@H]3O[C@@H]1O[C@H](CO)[C@H](O)[C@H](O)[C@H]1O (stereo partly drawn) [mosesin-4] |  |  | shark repellent activity (sharks [2]): shows shark repellent activity |
| N#CSCCCCC(Cl)(Cl)Cl [thiocyanic acid 5,5,5-trichloro amyl ester] |  | flaccid paralysis; also recorded: respiratory impairment |  |
| CCCCCCCCCCCCOS(=O)(=O)[O-].[Na+] [sodium dodecyl sulfate] | revealed efficiency to repel sharks |  | shark repellent effect (captive lemon sharks): strongly repelled sharks |
| C=CCN=C=S [allyl isothiocyanate] |  | strongly stimulated the entire body |  |
| CCS [ethyl mercaptan] |  | induced tetanic paralysis |  |
| copper acetate |  |  | effectivity as a shark deterrent (sharks [3]): reduced effectivity as a deterrent |
| O=C(CCl)c1ccccc1 [phenacyl chloride] |  | seriously irritated the eyes and impaired vision |  |
| CCCCCCCCCCOS(=O)(=O)[O-].[Na+] [sodium decyl sulfate] | revealed efficiency to repel sharks |  |  |
| COc1ccc(O)c(C(C)(C)C)c1 [butylated hydroxyanisole] |  |  | toxicity for fishes compared with zebra mussel [4]: substantially greater |
| CCCCCCCCCCCCCCOS(=O)(=O)[O-].[Na+] [sodium tetradecyl sulfate] | revealed efficiency to repel sharks |  |  |
| CC1(C)[C@@H]2CC[C@@]1(C)[C@H](OC(=O)CSC#N)C2 [isobornyl thiocyanoacetate] |  | induced tetanic paralysis |  |
| O=C(CBr)c1ccccc1 [phenacyl bromide] |  | seriously irritated the eyes and impaired vision |  |
| O=C(OC[C@H]1O[C@@H](OC(=O)c2cc(O)c(O)c(OC(=O)c3cc(O)c(O)c(O)c3)c2)[C@H](OC(=O)c2cc(O)c(O)c(OC(=O)c3cc(O)c(O)c(O)c3)c2)[C@@H](OC(=O)c2cc(O)c(O)c(OC(=O)c3cc(O)c(O)c(O)c3)c2)[C@@H]1OC(=O)c1cc(O)c(O)c(OC(=O)c2cc(O)c(O)c(O)c2)c1)c1cc(O)c(O)c(OC(=O)c2cc(O)c(O)c(O)c2)c1 [tannic acid] |  |  | toxicity for fishes compared with zebra mussel [4]: substantially greater |
| COc1cc(CNC(=O)CCCC/C=C/C(C)C)ccc1O [capsaicin, 8-methyl-n-vanillyl-6-nonenamide] |  |  | skin reaction (flare, irritation) (human skin): no flare and irritation; skin temperature below which burning pain and hyperaesthesia cease completely (human skin): below 28 deg C.; concentration producing perceptible warmth at subcutaneous and intramuscular level (human skin; sc): 10 µg/mL; concentration producing persistent burning at subcutaneous and intramuscular level (human skin; sc): 100 µg/mL; concentration at which detected in humans (human tongue): 0.1 µg/mL; concentration provoking a sensation of perceptible warmth on tongue (human tongue): 1 µg/mL; concentration provoking a sensation of persistent burning on tongue (human tongue): 10 µg/mL |
| CCCCCCCCCCCCCCCCCCOS(=O)(=O)[O-].[Na+] [sodium octadecyl sulfate] | revealed efficiency to repel sharks |  |  |
| magnesium dodecyl sulfate | revealed efficiency to repel sharks |  |  |
| sodium dodecyl ether sulfate | revealed efficiency to repel sharks |  |  |
| Oc1ccccc1 [phenol] |  | strongly stimulated the entire body |  |
| O=S([O-])O.[Na+] [sodium bisulfite] |  | respiratory impairment |  |
